Calls of active or inactive are those of the source. The calls are words filed in the database; no cut-off is given here.
Columns and labels:
3T3-L1 [1] = test: Upregulation of CPT-1 gene expression in mouse 3T3L1 cells at […] after 4 days by RT-PCR analysis relative to insulin; assay type: functional
3T3-L1 [2] = test: Downregulation of ACC-1 gene expression in mouse 3T3L1 cells at […] after 4 days by RT-PCR analysis relative to insulin; assay type: functional
3T3-L1 [3] = test: Upregulation of CPT-1 gene expression in mouse 3T3L1 cells at […] after 4 days by RT-PCR analysis relative to untreated control; assay type: functional, cell-based
3T3-L1 [4] = test: Downregulation of ACC-1 gene expression in mouse 3T3L1 cells at […] after 4 days by RT-PCR analysis relative to untreated control; assay type: functional
3T3-L1 [5] = test: Upregulation of PGC-1 gene expression in mouse 3T3L1 cells at […] after 4 days by RT-PCR analysis relative to control; assay type: functional, cell-based
3T3-L1 [6] = test: Downregulation of CPT-1 gene expression in mouse 3T3L1 cells at […] after 4 days by RT-PCR analysis; assay type: functional, cell-based

| SMILES | fold change (FC) (3T3-L1 [1]) | fold change (FC) (3T3-L1 [2]) | Activity (3T3-L1 [3]) | fold change (FC) (3T3-L1 [4]) | Activity (3T3-L1 [5]) | Activity (3T3-L1 [4]) | Activity (3T3-L1 [6]) | Activity (3T3-L1 [1]) |
| --- | --- | --- | --- | --- | --- | --- | --- | --- |
| CN(C)CCNC(=S)N/N=C\c1ccc(OCc2cn(Cc3ccccc3)nn2)cc1 | 3 | 2 | Active | 2 | inactive | – | – | – |
| CCCCCNC(=S)N/N=C\c1ccc(OCc2cn(Cc3ccccc3)nn2)cc1 | 2 | – | Active | – | Active | Active | – | – |
| CCCCCCCCNC(=S)N/N=C\c1ccc(OCc2cn(Cc3ccccc3)nn2)cc1 | – | 4 | – | 4 | Active | – | Active | – |
| CC(C)CNC(=S)N/N=C\c1ccc(OCc2cn(Cc3ccccc3)nn2)cc1 | 5 | 2 | Active | 2 | Active | – | – | – |
| OCCNC(=S)N/N=C\c1ccc(OCc2cn(Cc3ccccc3)nn2)cc1 | – | – | – | – | inactive | inactive | Active | – |
| S=C(NCCc1ccccc1)N/N=C\c1ccc(OCc2cn(Cc3ccccc3)nn2)cc1 | – | 2 | Active | 2 | Active | – | – | Active |
| OCCCCCCNC(=S)N/N=C\c1ccc(OCc2cn(Cc3ccccc3)nn2)cc1 | – | – | Active | – | Active | Active | – | Active |

From ChEMBL document CHEMBL2424633, “Evaluation of the Influence of thiosemicarbazone-triazole hybrids on genes implicated in lipid oxidation and accumulation as potential anti-obesity agents” (2013)
